Reference: PMC5373622, “Screening for AMPA receptor auxiliary subunit specific modulators” (PLoS ONE, 2017)
“And” between values parts separate entries of the source, which are not always exact repeats. Equal entries are not always repeated. Where two headings read alike, the source gives them in different places.

Target: GluA2flip(R)-stargazin (A2R-stg TetON HEK293 cells) (Homo sapiens, UniProt P42262, Q607R)
Assay: Voltage-sensitive dye (VSD) assay (primary screen, counter-screen, CRC) on A2R-stg cells
Conditions: for BaselineReturn: max 250-255 s minus min 0-5 s; for CMPDmaxmin: max-min 8-100 s; for CMPDmaxmin / CMPDSlope: only compound present; for Glumaxmin: max-min normalized value 301-380 s; for Glumaxmin / GluSlope: compound and glutamate present; for GluSlope: slope 310-315 s; for CMPDSlope: slope 11-18 s
[1] = 6.25e-5 M, per well, plate 58169DST7

GluA2flip(R)-stargazin (A2R-stg TetON HEK293 cells), sequence (P42262 25-883 isoform P42262-2 Q607R limits assumed): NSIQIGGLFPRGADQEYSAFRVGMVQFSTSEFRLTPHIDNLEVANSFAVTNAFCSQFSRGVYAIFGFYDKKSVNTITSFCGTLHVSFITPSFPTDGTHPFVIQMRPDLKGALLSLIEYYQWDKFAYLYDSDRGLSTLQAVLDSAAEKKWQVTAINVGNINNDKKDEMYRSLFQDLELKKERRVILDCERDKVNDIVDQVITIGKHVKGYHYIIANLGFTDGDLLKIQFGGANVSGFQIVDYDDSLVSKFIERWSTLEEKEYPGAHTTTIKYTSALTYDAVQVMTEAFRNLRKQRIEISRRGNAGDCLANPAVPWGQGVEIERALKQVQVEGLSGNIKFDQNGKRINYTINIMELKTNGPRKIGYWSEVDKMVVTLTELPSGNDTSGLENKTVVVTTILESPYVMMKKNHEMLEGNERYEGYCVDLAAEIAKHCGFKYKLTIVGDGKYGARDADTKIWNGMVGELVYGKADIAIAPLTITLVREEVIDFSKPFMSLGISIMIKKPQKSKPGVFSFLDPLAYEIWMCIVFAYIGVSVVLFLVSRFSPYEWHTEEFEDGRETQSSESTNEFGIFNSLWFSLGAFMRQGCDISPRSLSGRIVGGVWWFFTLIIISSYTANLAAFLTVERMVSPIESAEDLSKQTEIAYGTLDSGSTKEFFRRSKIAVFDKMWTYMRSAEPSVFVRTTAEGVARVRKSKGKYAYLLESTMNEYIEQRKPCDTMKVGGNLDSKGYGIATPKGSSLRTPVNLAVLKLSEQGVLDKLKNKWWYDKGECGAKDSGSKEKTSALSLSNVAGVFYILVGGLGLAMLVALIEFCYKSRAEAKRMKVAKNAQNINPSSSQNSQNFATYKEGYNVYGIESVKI
GluA2flip(R)-stargazin (A2R-stg TetON HEK293 cells), sequence (Q9Y698 whole entry partner): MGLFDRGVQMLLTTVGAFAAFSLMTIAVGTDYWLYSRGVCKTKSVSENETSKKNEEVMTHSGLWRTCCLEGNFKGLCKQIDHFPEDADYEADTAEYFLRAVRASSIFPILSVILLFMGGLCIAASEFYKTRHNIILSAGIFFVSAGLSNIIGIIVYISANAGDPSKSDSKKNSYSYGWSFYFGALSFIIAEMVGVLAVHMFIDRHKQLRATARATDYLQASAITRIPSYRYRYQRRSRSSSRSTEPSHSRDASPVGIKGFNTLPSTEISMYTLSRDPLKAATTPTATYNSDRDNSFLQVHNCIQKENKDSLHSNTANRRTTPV

O=C(c1ccc2c(c1)OCCO2)N1CCCCC1 [CX-546, 1-(1,4-benzodioxan-6-ylcarbonyl)piperidine]
pctMAXslopeCMPD (CMPDSlope as percentage MAX) (3.125e-5 M, per well, plate 58169DST7): 26.044% and 27.2438% and 26.2272% and 24.5792% and 27.7844% and 28.3201% | BaselineReturn (maximal normalized value 250-255 s minus minimal 0-5 s) [1]: 0.01812 and 0.0231 and 0.02286 | CMPDmaxmin (maximal - minimal normalized value, 8-100 s, only compound present) [1]: 0.02793 and 0.02317 and 0.02528 | pctMAXslope (GluSlope as percentage MAX) [1]: 40.7941% and 49.9185% and 35.6482% | pctMAXslopeCMPD (CMPDSlope as percentage MAX) [1]: 27.4558% and 28.8276% and 28.6616% | BaselineReturn (6.25e-5 M): 0.01973 and 0.018 and 0.01152 | CMPDmaxmin (6.25e-5 M): 0.02536 and 0.01826 and 0.01839 | Glumaxmin (6.25e-5 M): 0.2031 and 0.2196 and 0.1717 | GluSlope (6.25e-5 M): 6.2051e-6 and 9.036e-6 and 7.987e-6 | BaselineReturn (0.00025 M): 0.05169 and 0.04966 and 0.04304 and 0.05412 and 0.05858 and 0.04633 | CMPDmaxmin (0.00025 M): 0.05366 and 0.04763 and 0.04669 and 0.05717 and 0.05497 and 0.04716 | Glumaxmin (0.00025 M): 0.3546 and 0.3256 and 0.3581 and 0.3601 and 0.3987 and 0.3619 | CMPDSlope (0.00025 M): 2.511e-6 and 1.582e-6 and 1.531e-6 and 1.914e-6 and 1.992e-6 and 1.6067e-6 | GluSlope (0.00025 M): 1.516e-5 and 1.442e-5 and 1.434e-5 and 1.326e-5 and 1.8177e-5 and 1.566e-5 | BaselineReturn (0.0005 M): 0.1016 and 0.09236 and 0.09814 and 0.1005 and 0.08945 and 0.09494 | CMPDmaxmin (0.0005 M): 0.09292 and 0.08599 and 0.08883 and 0.08871 and 0.09266 and 0.08518 | Glumaxmin (0.0005 M): 0.4227 and 0.415 and 0.4148 and 0.4609 and 0.4831 and 0.4327 | CMPDSlope (0.0005 M): 3.674e-6 and 4.188e-6 and 3.738e-6 and 3.852e-6 and 5.683e-6 and 4.257e-6 | GluSlope (0.0005 M): 1.777e-5 and 1.508e-5 and 1.548e-5 and 1.731e-5 and 1.8778e-5 and 1.858e-5 | BaselineReturn (0.001 M): 0.1819 and 0.178 and 0.2248 and 0.2011 and 0.1897 and 0.1856 | CMPDmaxmin (0.001 M): 0.1715 and 0.1673 and 0.213 and 0.1892 and 0.174 and 0.1789 | Glumaxmin (0.001 M): 0.4573 and 0.4826 and 0.4107 and 0.4115 and 0.4861 and 0.4796 | CMPDSlope (0.001 M): 9.085e-6 and 8.904e-6 and 9.403e-6 and 8.729e-6 and 8.585e-6 and 8.384e-6 | GluSlope (0.001 M): 1.548e-5 and 1.672e-5 (2×) and 1.1033e-5 and 1.693e-5 and 1.578e-5 | activity at 250 µM (HEK293, read-out: AVE %MAXCMPDslope, 0.00025 M, average of wells): 30.3% | activity at 500 µM (HEK293, read-out: AVE %MAXCMPDslope, 0.0005 M, average of wells): 34.5% | activity at 1000 µM (HEK293, read-out: AVE %MAXCMPDslope, 0.001 M, average of wells): 42.6% | activity at […] (HEK293, read-out: AVE %MAXCMPDslope, […], average of wells): 29.5% | activity at 250 µM (HEK293, read-out: AVE %MAXslope, 0.00025 M, average of wells): 53.6% | activity at 500 µM (HEK293, read-out: AVE %MAXslope, 0.0005 M, average of wells): 57.1% | activity at 1000 µM (HEK293, read-out: AVE %MAXslope, 0.001 M, average of wells): 54.1% | activity at […] (HEK293, read-out: AVE %MAXslope, […], average of wells): 47% | activity at 250 µM (HEK293, read-out: pctMAX, 0.00025 M, Glumaxmin as percentage MAX (vhl and glutamate controls)): 30.3% | activity at 500 µM (HEK293, read-out: pctMAX, 0.0005 M, Glumaxmin as percentage MAX (vhl and glutamate controls)): 42.2% | activity at 1000 µM (HEK293, read-out: pctMAX, 0.001 M, Glumaxmin as percentage MAX (vhl and glutamate controls)): 48.3% | activity at 250 µM (HEK293, read-out: pctMAXslope, 0.00025 M, GluSlope as percentage MAX): 53.6% | activity at 500 µM (HEK293, read-out: pctMAXslope, 0.0005 M, GluSlope as percentage MAX): 58.2% | activity at 1000 µM (HEK293, read-out: pctMAXslope, 0.001 M, GluSlope as percentage MAX): 54.2% | activity at […] (HEK293, read-out: pctMAXslope, […], GluSlope as percentage MAX): 49.2% | activity at 250 µM (HEK293, read-out: pctMAXslopeCMPD, 0.00025 M, CMPDSlope as percentage MAX): 31.5% | activity at 500 µM (HEK293, read-out: pctMAXslopeCMPD, 0.0005 M, CMPDSlope as percentage MAX): 33.5% | activity at 1000 µM (HEK293, read-out: pctMAXslopeCMPD, 0.001 M, CMPDSlope as percentage MAX): 43% | activity at […] (HEK293, read-out: pctMAXslopeCMPD, […], CMPDSlope as percentage MAX): 28.5% | concentrations giving a slight increase in fluorescence in the absence of glutamate (compound-only window): > 250 µM
